Measured values reported in patent EP0108147B1, “Use of a protoberberine alkaloid and composition containing same” (MAROKO, Peter R., priority 1982, dated 1983).
Read-outs that look alike come from different tables or passages of the source.

Legend:
in vivo = assay: in vivo; design: species or system rats; conditions: rat
Procedure: Preferential concentration of berberine in the heart rather than in other thoracic organs or the liver is a sine qua non for a good imaging agent. Berberine level measurements were done spectrophotometrically. The experiment consisted of injecting 3.5 mg/Kg of berberine ([…]) intravenously and killing the rats after 15 minutes, 90 minutes, 6 hours, 24 hours, 48 hours and 1 week. Each group consisted of 5-6 rats. A control group (no berberine administration) was used to determine the absorbance of the different organs at that wave length. […] It was released rapidly from the heart thus showing no significant tendency to accumulate in that organ. Its concentrate was 1, 1 and 3 pg/g in the lungs and 0.2 and 0 in the skeletal muscles or in the blood at the same time intervals.

dogs = assay: Myocardial oxygen consumption (MV02) and epicardial ST segment elevation experiments; assay type: in vivo
Excerpt: These changes were due to lower. myocardial oxygen consumption during the occlusion with berberine treatment. […] This is quite an advanageous therapeutic combination of properties which further distinguish the compounds used in the invention from the conventional drugs.

[1] = system: healthy adult mongrel dogs; assay: Protocol M: hemodynamics in anesthetized open-chest dogs, systolic arterial pressure held constant; assay type: in vivo
[2] = system: anesthetized closed chest dogs; assay: Association of ouabain and berberine on contractility (LV dP/dt), constant systolic pressure; assay type: in vivo; conditions: ouabain 0.03 mg/Kg i.v. bolus
Procedure: In anesthetized closed chest dogs the systolic arterial pressure was maintained constant with a reservoir full of heparinized blood (as in protocol "M" and "Z" described above) and a "pigtail" and Millar catheter were introduced into the left ventricular cavity (as in protocol "Z" and "HV", described above). All data was recorded on 8 channel polygraph (Gould Instruments) with a paper speed of 200 mm/s when necessary and at 2 mm/s constantly.

Mongrel dogs [3] = assay: Protocol HV: acute left ventricular failure by coronary microsphere embolization, closed chest; assay type: in vivo; conditions: ouabain 0.03 mg/kg during 30 minutes
Procedure: - Experiments were carried out in 21 mongrel dogs of either sex with body weight between 19 and 39 kg. Anesthesia was induced with sodium pentobarbital, 25 mg/kg of body weight intravenously, and small supplementary doses were given as necessary to maintain a constant level of anesthesia. The dogs were placed in the left lateral position and ventilation was maintained through a cuffed endotracheal tube with a volume-controlled respirator (Harvard Apparatus Co., Millis, Massachusetts). Polyethylene cannuleae were placed into the jugular and femoral veins for intravenous infusions and drug adminstration. Electrocardiograms (lead aVF) were monitored continuously throughout the experiments.
A polyethylene cannula was introduced into the aorta through the left carotid artery to record arterial pressure. (Stantham P23 ID transducer, Stantham Instruments, Inc. Oxnard, California). A Millar microtip transducer catheter (Millar Instruments, Inc., Houston, Texas) was introduced into the left ventricular cavity through the femoral artery to measure left ventricular pressures. For adjustment of zero level, left ventricular pressure was also measured through the fluid-filled lumen in the Millar catheter (Statham P23 ID transducer). The maximal rate of rise of left ventricular pressure, LV dP/dt, was recorded by means of a differentiator. All these parameters were recorded continuously on a polygraph (Gould 2800, Gould Instruments, Cleveland, Ohio). Cardiac output was determined by the thermodilution technique, using a thermistor catheter in the pulmonary artery and calculated by a cardiac output computer (Elecath, Electro- catheter Corp., Rahway, New Jersey). The coefficient of variation for duplicate CO measurements was 5%. In addition to the parameters directly obtained, total peripheral vascular resistance was calculated from the ratio of […] and cardiac output. Stroke volume was calculated by dividing cardiac output by heart rate. Heparin (Invendex) (5000 IU) was administered to avoid clotting of the catheters.
To induce acute left vetricular failure, initially the left main coronary artery was catheterized with a Judkin coronary artery catheter (7F, ISCI Cardiology and Radiology Products, Billerica, Massachusetts) under fluoroscopic control. It was introduced through a femoral artery, and polystyrene microspheres (3M Company, St. Paul, Minnesota) with a diameter of 52. 5 ± 4.0 µm (mean±SD) were injected into the coronary artery. The microspheres were used in a concentration of 1 mg (i.e., 12,000) per ml saline. The first dose of microsphere solution was 0.5 mi/kg body weight, and all subsequent doses were 0.25 ml/kg body weight, administered every 5 minutes. Administration of microspheres was discontinued when LV/dP/dt had been reduced by 30% or more when measured 4 minutes after the last dose. All dogs received prophylactic antiarrhythmic treatment with intravenous lidocaine, 1.5 mg/kg body weight as a bolus 20 min after the end of embolization, followed by a continuous infusion of […].
Forty-five minutes were allowed to elapse to verify the stability of the preparation. If Lv dP/dt or left ventricular end diastolic pressure had changed by 20% or more between 30 and 45 minutes after embolization, the dogs were excluded from this study and not randomized. Forty-five minutes after the end of embolization, the dogs were assigned randomly to three groups: a) Berberine-treated group, 0.2 mg/kg/ min, dissolved in 60 ml of a solution of 5% dextrose in water administered in a constant infusion during 30 minutes; b) ouabain-treated group, 0.03 mg/kg was administered in 60 ml of a 5% solution of dextrose in water during 30 minutes; and c) Control group, administration of 60 ml of a 5% solution of dextrose in water during 30 min. […]

[4] = system: closed-chest anesthetized dogs; conditions: for rise of diastolic pressure: only digitalis
Procedure: A study was carried out to examine the effects of the simultaneous administration of berberine on digitalis (i.e. ouabain) produced arrhythmias.
The experiments were conducted in closed-chest anesthetized dogs which were randomized to three groups. All received ouabain 0.03 mg/Kg as a bolus intravenously and thereafter a continuous infusion with a constant rate of 0.0006 mg/Kg/min until death. […] The second group received simultaneously berberine 1 mg/Kg intravenously as a bolus and then 0.2 mg/Kg/min as a continous infusion. The third group received berberine only after the appearance of VEA in a frequency of 50% of more of all systoles.
Moreover, the effects of intravenous bolus injection of berberine (0.4 to 1 mg/Kg) was studied (in comparison to dextrose 5% injection).

dog = assay: Protocol M simile: high or repetitive infusions in single dogs; assay type: in vivo
Procedure: It is noted that the dP/dt increased by 350% after the eighth dose and dF/dt by 450%.
In one dog using protocol M simile, 240 mg/Kg of berberine HCI was administered and dP/dt increased by 75%, aortic flow by 67%, heart rate fell from 150 to 114 beats/min., diastolic aortic pressure fell from 92 to 67 mmHg, and left atrial pressure fell from 8.5 to 7.5 mmHg.
When this type of experiment was repeated with tetrahydropalmatine, a first dose of 3.5 mg/Kg was given without maintaining the pressure constant and arterial pressure fell from 142/115 to 118/90 mmHg. When the second infusion was given with constant pressure, dP/dt increased by 17%.

Mongrel dogs [5] = assay: Protocol Z: continuous 35 minute infusion in anesthetized open-chest dogs, constant left ventricular pressure; assay type: in vivo
Procedure: Mongrel dogs weighing between 15 and 25 kg were anesthetized with intravenous sodium thiamylal (20 mg/kg initially with additional doses given as needed). The dogs were intubated endotracheally, and respiration was maintained by a Harvard respirator. The chest was then opened in the fourth left intercostal space and the heart suspended temporarily in a pericardial cradle.
Aortic pressures were recorded through a polyethylene cannula introduced through the carotid artery (Statham P23 Db pressure transducer) and electrocardiogram (lead aVF) were recorded throughout the experiment on a polygraph (Gould Instruments). Another polyethylene cannula was placed in the left atrium for measurement of atrial pressure (Statham P23 Db pressure transducer). An electromagnetic flowmeter (Biotonix Laboratories) was placed around the ascending aorta and the aortic flow was recorded on a polygraph. Two catheters were inserted into the left ventricle through a femoral artery.
The first ("pigtail") served as a reference, while the second (Millar microtip transducer catheter) was connected through a Millar transducer (Millar Instruments, Houston, Texas) to the polygraph, where both left ventricular pressure curves were recorded simultaneously. The left ventricular end diastolic pressure was recorded separately through a Millar catheter. The first derivative of the left ventricular pressure (dP/dt) was obtained by electronic differentiation of the left ventricular pulse recorded through the Millar catheter.
A reservoir of blood was connected with the femoral artery in order to maintain constant left ventricular pressure during the experiment. In this protocol, similarly to protocol M, systemic arterial pressure was maintained constant in order to have accurate measurements of dP/dt which represent well left ventricular contractility when the systolic pressure is maintained constant. However, calculated total peripheral resistance will be higher (an underestimation of the fall). After stabilization of hemodynamics as reflected by continuously monitored parameters for 15 minutes, the substances to be studied were infused intravenously using a Harvard infusion pump. Registrations were made every 5 minutes at a paper speed of 200 mm/second, while all the parameters were recorded constantly at a speed of 2 mm/second. The dogs were randomly assigned to several groups: • Group a) Control - in these dogs a solution of 5% dextrose in water was infused in the same quantity as in the berberine treated animals (n = 7).
In all berberine, berberrubine coreximine and tetrahydropalmatine groiups the compounds were infused at constant rate for 35 minutes and the data analyzed at 5 minute intervals. • Group b) Berberine 0.7 mg/Kg/min (n = 10). • Group c) Berberine 0.2 mg/Kg/min (n = 7). • Group d) Berberine 0.02 mg/Kg/min (n = 7). • Group e) Berberrubine 0.2 mg/Kg/min (n = 7). • Group f) Tetrahydropalmatine 0.2 mg/Kg/min (n = 4). • Group g) Coreximine 0.2 mg/Kg/min (n = 8).
Therefore, group b, c and d were used to analyze the various effects of continuous infusion of berberine and its dose response and groups e and f and g used to examine the effects of these three other proberberines. Moreover, their effects were compared to the berberine treated dogs with the same dose (i.e. Group c).

Compound: COc1ccc2cc3[n+](cc2c1OC)CCc1cc2c(cc1-3)OCO2 [berberine (S04), berberine]
- concentrate in the liver (in vivo; 15 min): 0 1l9/g
- concentrate in the liver (in vivo; 90 min): 6 1l9/g
- concentrate in the liver (in vivo; 6 h): 2 1l9/g
- concentration at 15 min (in vivo; concentrate in the lungs): 0.001 ng/g
- concentration at 90 min (in vivo; concentrate in the lungs): 0.001 ng/g
- concentration at 6 h (in vivo; concentrate in the lungs): 0.003 ng/g

Compound: CC(C)NCC(O)c1ccc(O)c(O)c1 (centres unmarked) [isoproterenol, reference compound]
- epicardial ST segment elevations (dogs; after coronary artery occlusion): increased
- mycardial oxygen consumption (MV02) (dogs; non-failing heart, dose that increases LV dP/dt similarly): significantly augmented

Compound: C[C@@H]1O[C@@H](O[C@H]2C[C@@H](O)[C@]3(CO)[C@H]4[C@H](O)C[C@]5(C)[C@@H](C6=CC(=O)OC6)CC[C@]5(O)[C@@H]4CC[C@]3(O)C2)[C@H](O)[C@H](O)[C@H]1O [ouabain, reference compound]
- flow in the descending aorta ([1]; after ouabain 0.03 mg/Kg i.v. bolus, from 1195 ± 89): 1018 ± 93 mL/min
- diastolic aortic pressure ([1]; ouabain 0.03 mg/Kg i.v. bolus): did not change significantly
- increase of calculated peripheral resistance ([1]; ouabain 0.03 mg/Kg i.v. bolus): 18%
- decrease of flow in the descending aorta ([1]; ouabain 0.03 mg/Kg i.v. bolus, 11 dogs, after the 90 minute experiments): 15%
- increase in dP/dt, of the initial value of peak LV dP/dt ([2]; 5 minutes): 17±2%
- increase in dP/dt, of the initial value of peak LV dP/dt ([2]; 10 minutes): 24±3%
- increase in dP/dt, of the initial value of peak LV dP/dt ([2]; 15 minutes): 34±4%
- increase in dP/dt, of the initial value of peak LV dP/dt ([2]; 20 minutes): 36±4%
- increase in dP/dt, of the initial value of peak LV dP/dt ([2]; 25 minutes): 44±6%
- increase in dP/dt, of the initial value of peak LV dP/dt ([2]; 30 minutes): 49±7%
- hemodynamic parameters from before to 30 minutes after the start of drug administration (Mongrel dogs [3]): did not change any of the hemodynamic parameters
- dose of ouabain to provoke VT ([4]; control situation, ouabain alone): 0.04 mg/kg
- amount of ouabain that provoked VT ([4]; controls, ouabain alone): 0.048 mg/kg

Compound: COc1cc2c(cc1OC)[C@@H]1Cc3ccc(OC)c(OC)c3CN1CC2 [tetrahydropalmatine]
- arterial pressure (dog; first dose 3.5 mg/Kg, pressure not held constant, from 142/115): 118/90
- increase of dP/dt (dog; second infusion, constant pressure): 17%
- reduction of calculated peripheral resistance (Mongrel dogs [5]; 0.2 mg/Kg/min): over 30%
- fall of heart rate (HR) (Mongrel dogs [5]; 0.2 mg/Kg/min (Table XIII)): 5.5%

Compound: digitalis [reference compound]
- rise of diastolic pressure ([4]; 10 minutes): 31±9%
- rise of diastolic pressure ([4]; 20 minutes): 16±11%
- rise of diastolic pressure ([4]; 30 minutes): 34±15%
- rise of diastolic pressure ([4]; 60 minutes): 16±7%
